Laboratory results from patent US8022206B2 (OSI Pharmaceuticals, LLC, priority 2008, dated 2011).

Key:
[1] = target: RON (human) (Homo sapiens, UniProt Q04912); assay: RON (human) AlphaScreen kinase assay, Km of ATP; type: biochemical; conditions: AlphaScreen, Km of ATP; read-out: RON biochemical IC50
Protocol: (§1) Someone skilled in the art will appreciate that a variety of assay formats may be used to determine the activity of the compounds of this invention. For example, AlphaScreen (Amplified Luminescent Proximity Homogeneous Assay) technology was used with the kinases described below. Assay ATP concentrations for individual kinases are included in the text.
Desired compound is added in a final concentration of 1% DMSO with control being vehicle of DMSO alone. […] Enzyme is added to initiate the reaction and incubated for 30 min at RT. In subdued light, appropriate amount of PT66 donor and acceptor beads (diluted 1:260 from manufacturer's provision in a 25 mM Tris HCl (pH=7.5), 200 mM NaCl, 100 mM EDTA, 0.3% BSA buffer) are added to the wells. The plates, incubated for 1 h, are read on an AlphaQuest plate reader.

[2] = target: MET (human) (Homo sapiens, UniProt P08581); assay: MET (human) AlphaScreen kinase assay, Km of ATP; type: biochemical; conditions: AlphaScreen, Km of ATP; read-out: Met biochemical IC50
MET (human), sequence (P08581 25-1390): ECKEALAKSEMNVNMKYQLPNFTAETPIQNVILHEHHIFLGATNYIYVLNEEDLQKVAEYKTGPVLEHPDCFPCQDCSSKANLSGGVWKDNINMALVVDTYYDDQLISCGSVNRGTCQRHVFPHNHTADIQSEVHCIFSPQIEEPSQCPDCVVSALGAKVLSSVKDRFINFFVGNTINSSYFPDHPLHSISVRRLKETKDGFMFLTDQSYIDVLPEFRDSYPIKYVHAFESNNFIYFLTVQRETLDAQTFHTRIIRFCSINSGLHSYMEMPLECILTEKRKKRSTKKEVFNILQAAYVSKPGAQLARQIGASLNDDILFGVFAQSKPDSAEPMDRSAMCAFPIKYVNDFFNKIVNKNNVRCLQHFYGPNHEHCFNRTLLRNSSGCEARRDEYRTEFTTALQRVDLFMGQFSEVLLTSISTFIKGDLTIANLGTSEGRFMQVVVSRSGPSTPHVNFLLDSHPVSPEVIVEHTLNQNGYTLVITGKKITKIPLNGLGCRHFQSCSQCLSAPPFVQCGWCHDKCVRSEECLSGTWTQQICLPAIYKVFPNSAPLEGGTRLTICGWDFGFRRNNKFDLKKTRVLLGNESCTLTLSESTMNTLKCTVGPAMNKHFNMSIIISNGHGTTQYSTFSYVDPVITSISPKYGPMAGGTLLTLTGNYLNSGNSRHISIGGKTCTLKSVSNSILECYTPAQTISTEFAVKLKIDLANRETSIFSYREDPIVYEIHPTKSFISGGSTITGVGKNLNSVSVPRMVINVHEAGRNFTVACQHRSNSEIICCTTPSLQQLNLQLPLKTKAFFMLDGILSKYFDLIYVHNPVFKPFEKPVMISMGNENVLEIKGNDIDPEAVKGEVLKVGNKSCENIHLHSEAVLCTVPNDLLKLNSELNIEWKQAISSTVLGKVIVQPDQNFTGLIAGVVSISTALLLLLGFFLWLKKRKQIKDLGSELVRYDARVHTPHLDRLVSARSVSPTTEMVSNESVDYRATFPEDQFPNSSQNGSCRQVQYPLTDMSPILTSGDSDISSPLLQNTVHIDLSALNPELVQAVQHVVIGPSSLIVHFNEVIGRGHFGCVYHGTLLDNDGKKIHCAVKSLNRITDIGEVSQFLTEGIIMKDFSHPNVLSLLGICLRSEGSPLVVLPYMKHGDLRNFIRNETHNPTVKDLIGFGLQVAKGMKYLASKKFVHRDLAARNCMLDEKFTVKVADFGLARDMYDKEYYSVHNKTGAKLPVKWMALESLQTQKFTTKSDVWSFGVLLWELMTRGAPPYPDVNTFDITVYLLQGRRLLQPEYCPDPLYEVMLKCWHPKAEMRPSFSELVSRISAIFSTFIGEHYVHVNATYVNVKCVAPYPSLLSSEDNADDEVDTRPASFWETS
Protocol: as §1
Desired compound is added in a final concentration of 1% DMSO with control being vehicle of DMSO alone. MET is diluted to the optimized concentration (optimized on a lot-by-lot basis) in an enzyme diluent buffer (50 mM Tris pH=7.4, 1% glycerol, 0.03% Brij35, 0.24 mM EGTA, 1 mM DTT, and 0.003% BSA). Enzyme is added to initiate the reaction and incubated for 60 min at RT. In subdued light, appropriate amount of PT66 donor and acceptor beads (diluted 1:260 from manufacturer's provision in a 25 mM Tris HCl (pH=7.5), 400 mM NaCl, 100 mM EDTA, 0.3% BSA buffer) are added to the wells. The plates, incubated for 1 h, are read on an AlphaQuest plate reader

RON (human), sequence (Q04912 25-1400): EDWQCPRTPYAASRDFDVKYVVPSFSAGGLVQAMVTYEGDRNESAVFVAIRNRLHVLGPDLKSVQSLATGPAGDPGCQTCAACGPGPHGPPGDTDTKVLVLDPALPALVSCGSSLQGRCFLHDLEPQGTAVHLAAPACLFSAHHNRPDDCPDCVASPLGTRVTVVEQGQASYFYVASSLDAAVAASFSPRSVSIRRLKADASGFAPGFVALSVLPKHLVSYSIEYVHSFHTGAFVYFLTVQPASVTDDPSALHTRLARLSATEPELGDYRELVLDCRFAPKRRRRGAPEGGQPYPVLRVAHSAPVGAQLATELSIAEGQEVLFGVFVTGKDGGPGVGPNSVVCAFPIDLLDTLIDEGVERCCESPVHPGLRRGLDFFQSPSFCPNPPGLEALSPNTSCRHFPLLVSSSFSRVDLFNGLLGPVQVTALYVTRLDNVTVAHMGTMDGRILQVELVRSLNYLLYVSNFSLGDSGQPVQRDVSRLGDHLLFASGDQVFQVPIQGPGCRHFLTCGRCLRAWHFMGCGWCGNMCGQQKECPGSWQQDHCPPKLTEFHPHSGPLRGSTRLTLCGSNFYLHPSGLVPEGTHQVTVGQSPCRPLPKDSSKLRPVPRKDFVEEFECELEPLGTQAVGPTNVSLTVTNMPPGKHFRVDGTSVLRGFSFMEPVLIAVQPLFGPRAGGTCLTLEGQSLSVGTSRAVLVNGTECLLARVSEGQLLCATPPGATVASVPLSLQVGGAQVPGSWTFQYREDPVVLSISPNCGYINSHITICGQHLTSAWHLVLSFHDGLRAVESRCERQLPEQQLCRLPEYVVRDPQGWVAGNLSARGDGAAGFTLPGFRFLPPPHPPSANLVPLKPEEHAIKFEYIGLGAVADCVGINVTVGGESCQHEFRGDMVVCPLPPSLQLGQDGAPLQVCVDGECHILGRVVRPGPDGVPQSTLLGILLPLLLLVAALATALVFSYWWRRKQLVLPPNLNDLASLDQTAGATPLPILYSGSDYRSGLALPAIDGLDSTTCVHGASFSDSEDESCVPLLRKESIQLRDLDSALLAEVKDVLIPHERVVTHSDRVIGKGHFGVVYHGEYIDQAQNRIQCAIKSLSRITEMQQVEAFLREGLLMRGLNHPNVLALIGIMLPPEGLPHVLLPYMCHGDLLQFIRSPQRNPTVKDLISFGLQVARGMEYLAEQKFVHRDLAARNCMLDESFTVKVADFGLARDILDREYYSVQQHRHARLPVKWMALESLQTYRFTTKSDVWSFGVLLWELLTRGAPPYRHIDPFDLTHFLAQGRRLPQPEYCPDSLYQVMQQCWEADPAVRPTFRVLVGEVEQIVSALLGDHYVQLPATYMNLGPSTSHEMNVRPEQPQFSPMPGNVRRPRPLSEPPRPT

C[C@@H]1CN(C(=O)CN2CC=C(c3coc4c(O[C@H](C)c5c(Cl)ccc(F)c5Cl)c(N)ncc34)CC2)C[C@H](C)O1 (relative stereo) [Example 204, 2-(4-{6-Amino-7-[(R)-1-(2,6-dichloro-3-fluorophenyl)ethoxy]-furo[3,2-c]pyridin-3-yl}-3,6-dihydro-2H-pyridin-1-yl)-1-((2R*,6S*)-2,6-dimethylmorpholin-4-yl)ethanone]
IC50 [1]: 500 to 5000 nM | IC50 [2]: < 500 nM

C[C@@H]1CN(C(=O)N2CC=C(c3coc4c(O[C@H](C)c5c(Cl)ccc(F)c5Cl)c(N)ncc34)CC2)C[C@H](C)N1C (relative stereo) [Example 221, (4-{6-Amino-7-[(R)-1-(2,6-dichloro-3-fluorophenyl)ethoxy]-furo[3,2-c]pyridin-3-yl}-3,6-dihydro-2H-pyridin-1-yl)-((3R*,5S*)-3,4,5-trimethylpiperazin-1-yl)-methanone]
IC50 [1]: < 500 nM | IC50 [2]: < 500 nM

C[C@@H]1CN(C(=O)N2CC=C(c3coc4c(O[C@H](C)c5c(Cl)ccc(F)c5Cl)c(N)ncc34)CC2)C[C@H](C)N1 (relative stereo) [Example 224, (4-{6-Amino-7-[(R)-1-(2,6-dichloro-3-fluorophenyl)ethoxy]-furo[3,2-c]pyridin-3-yl}-3,6-dihydro-2H-pyridin-1-yl)-((3R*,5S*)-3,5-dimethylpiperazin-1-yl)methanone]
IC50 [1]: < 500 nM | IC50 [2]: < 500 nM

C[C@@H]1CN(C(=O)c2ccc(-c3coc4c(O[C@H](C)c5c(Cl)ccc(F)c5Cl)c(N)ncc34)cc2)C[C@H](C)N1 (relative stereo) [Example 294, (4-{6-Amino-7-[(R)-1-(2,6-dichloro-3-fluorophenyl)ethoxy]furo[3,2-c]pyridin-3-yl}phenyl)-((3S*,5R*)-3,5-dimethylpiperazin-1-yl)methanone]
IC50 [1]: < 500 nM | IC50 [2]: < 500 nM

C[C@@H](Oc1c(N)ncc2c(Br)coc12)c1c(Cl)ccc(F)c1Cl [Example 2, 3-Bromo-7-[(R)-1-(2,6-dichloro-3-fluorophenyl)-ethoxy]-furo[3,2-c]pyridin-6-ylamine]
IC50 [1]: 5000 to 20000 nM | IC50 [2]: 500 to 5000 nM

C[C@@H](Oc1c(N)ncc2c(-c3cnn(C)c3)coc12)c1c(Cl)ccc(F)c1Cl [Example 4, 7-[(R)-1-(2,6-Dichloro-3-fluorophenyl)-ethoxy]-3-(1-methyl-1H-pyrazol-4-yl)-furo[3,2-c]pyridin-6-ylamine]
IC50 [1]: 500 to 5000 nM | IC50 [2]: 500 to 5000 nM

C[C@@H](Oc1c(N)ncc2c(C3=CCN(C(=O)CN(C)C)CC3)coc12)c1c(Cl)ccc(F)c1Cl [Example 9, 1-(4-{6-Amino-7-[(R)-1-(2,6-dichloro-3-fluorophenyl)ethoxy]-furo[3,2-c]pyridin-3-yl}-3,6-dihydro-2H-pyridin-1-yl)-2-dimethylaminoethanone]
IC50 [1]: < 500 nM | IC50 [2]: < 500 nM

C[C@@H](Oc1c(N)ncc2c(C3=CCN(C=O)CC3)coc12)c1c(Cl)ccc(F)c1Cl [Example 10, 4-{6-Amino-7-[(R)-1-(2,6-dichloro-3-fluorophenyl)-ethoxy]-furo[3,2-c]pyridin-3-yl}-3,6-dihydro-2H-pyridine-1-carbaldehyde]
IC50 [1]: < 500 nM | IC50 [2]: < 500 nM

C[C@@H](Oc1c(N)ncc2c(C3=CCN(C(=O)c4ccccc4)CC3)coc12)c1c(Cl)ccc(F)c1Cl [Example 11, (4-{6-Amino-7-[(R)-1-(2,6-dichloro-3-fluorophenyl)-ethoxy]-furo[3,2-c]pyridin-3-yl}-3,6-dihydro-2H-pyridin-1-yl)-phenylmethanone]
IC50 [1]: 500 to 5000 nM | IC50 [2]: 500 to 5000 nM

C[C@@H](Oc1c(N)ncc2c(C3=CCN(C(=O)CN4CCCC4)CC3)coc12)c1c(Cl)ccc(F)c1Cl [Example 13, 1-(4-{6-Amino-7-[(R)-1-(2,6-dichloro-3-fluorophenyl)-ethoxy]-furo[3,2-c]pyridin-3-yl}-3,6-dihydro-2H-pyridin-1-yl)-2-pyrrolidin-1-ylethanone]
IC50 [1]: < 500 nM | IC50 [2]: < 500 nM

CCC(=O)N1CC=C(c2coc3c(O[C@H](C)c4c(Cl)ccc(F)c4Cl)c(N)ncc23)CC1 [Example 14, 1-(4-{6-Amino-7-[(R)-1-(2,6-dichloro-3-fluorophenyl)-ethoxy]-furo[3,2-c]pyridin-3-yl}-3,6-dihydro-2H-pyridin-1-yl)-propan-1-one]
IC50 [1]: 500 to 5000 nM | IC50 [2]: < 500 nM

CC(C)C(=O)N1CC=C(c2coc3c(O[C@H](C)c4c(Cl)ccc(F)c4Cl)c(N)ncc23)CC1 [Example 15, 1-(4-{6-Amino-7-[(R)-1-(2,6-dichloro-3-fluorophenyl)-ethoxy]-furo[3,2-c]pyridin-3-yl}-3,6-dihydro-2H-pyridin-1-yl)-2-methylpropan-1-one]
IC50 [1]: 500 to 5000 nM | IC50 [2]: 500 to 5000 nM

C[C@@H](Oc1c(N)ncc2c(C3=CCN(C(=O)C4CCCCC4)CC3)coc12)c1c(Cl)ccc(F)c1Cl [Example 16, (4-{6-Amino-7-[(R)-1-(2,6-dichloro-3-fluorophenyl)-ethoxy]-furo[3,2-c]pyridin-3-yl}-3,6-dihydro-2H-pyridin-1-yl)-cyclohexylmethanone]
IC50 [1]: 500 to 5000 nM | IC50 [2]: 500 to 5000 nM

C[C@@H](Oc1c(N)ncc2c(C3=CCN(C(=O)C4CCN(C)CC4)CC3)coc12)c1c(Cl)ccc(F)c1Cl [Example 17, (4-{6-Amino-7-[(R)-1-(2,6-dichloro-3-fluorophenyl)-ethoxy]-furo[3,2-c]pyridin-3-yl}-3,6-dihydro-2H-pyridin-1-yl)-(1-methylpiperidin-4-yl)-methanone]
IC50 [1]: < 500 nM | IC50 [2]: < 500 nM

C[C@@H](Oc1c(N)ncc2c(C3=CCN(C(=O)[C@@H]4CCCN4C)CC3)coc12)c1c(Cl)ccc(F)c1Cl [Example 18, (4-{6-Amino-7-[(R)-1-(2,6-dichloro-3-fluorophenyl)-ethoxy]-furo[3,2-c]pyridin-3-yl}-3,6-dihydro-2H-pyridin-1-yl)-((S)-1-methylpyrrolidin-2-yl)-methanone]
IC50 [1]: < 500 nM | IC50 [2]: < 500 nM

C[C@@H](Oc1c(N)ncc2c(C3=CCN(C(=O)C4(O)CC4)CC3)coc12)c1c(Cl)ccc(F)c1Cl [Example 19, (4-{6-Amino-7-[(R)-1-(2,6-dichloro-3-fluorophenyl)-ethoxy]-furo[3,2-c]pyridin-3-yl}-3,6-dihydro-2H-pyridin-1-yl)-(1-hydroxycyclopropyl)-methanone]
IC50 [1]: 500 to 5000 nM | IC50 [2]: 500 to 5000 nM

C[C@@H](Oc1c(N)ncc2c(C3=CCN(C(=O)CCCN(C)C)CC3)coc12)c1c(Cl)ccc(F)c1Cl [Example 20, 1-(4-{6-Amino-7-[(R)-1-(2,6-dichloro-3-fluorophenyl)-ethoxy]-furo[3,2-c]pyridin-3-yl}-3,6-dihydro-2H-pyridin-1-yl)-4-dimethylaminobutan-1-one]
IC50 [1]: < 500 nM | IC50 [2]: < 500 nM

C[C@@H](Oc1c(N)ncc2c(C3=CCN(C(=O)C4CCNCC4)CC3)coc12)c1c(Cl)ccc(F)c1Cl [Example 21, (4-{6-Amino-7-[(R)-1-(2,6-dichloro-3-fluorophenyl)-ethoxy]-furo[3,2-c]pyridin-3-yl}-3,6-dihydro-2H-pyridin-1-yl)-piperidin-4-ylmethanone]
IC50 [1]: < 500 nM | IC50 [2]: < 500 nM

C[C@@H](Oc1c(N)ncc2c(C3=CCN(C(=O)[C@@H]4CCCN4)CC3)coc12)c1c(Cl)ccc(F)c1Cl [Example 22, (4-{6-Amino-7-[(R)-1-(2,6-dichloro-3-fluorophenyl)ethoxy]furo[3,2-c]pyridin-3-yl}-3,6-dihydro-2H-pyridin-1-yl)-(S)-pyrrolidin-2-ylmethanone]
IC50 [1]: < 500 nM | IC50 [2]: < 500 nM

C[C@@H](Oc1c(N)ncc2c(C3=CCN(C(=O)C4(N)CC4)CC3)coc12)c1c(Cl)ccc(F)c1Cl [Example 23, (1-Aminocyclopropyl)-(4-{6-amino-7-[(R)-1-(2,6-dichloro-3-fluorophenyl)-ethoxy]-furo[3,2-c]pyridin-3-yl}-3,6-dihydro-2H-pyridin-1-yl)-methanone]
IC50 [1]: 500 to 5000 nM | IC50 [2]: 500 to 5000 nM

C[C@@H](Oc1c(N)ncc2c(C3=CCN(C(=O)C(C)(C)N)CC3)coc12)c1c(Cl)ccc(F)c1Cl [Example 24, 2-Amino-1-(4-{6-amino-7-[(R)-1-(2,6-dichloro-3-fluorophenyl)-ethoxy]-furo[3,2-c]pyridin-3-yl}-3,6-dihydro-2H-pyridin-1-yl)-2-methylpropan-1-one]
IC50 [1]: < 500 nM | IC50 [2]: < 500 nM

CCN1CCN(C(=O)N2CC=C(c3coc4c(O[C@H](C)c5c(Cl)ccc(F)c5Cl)c(N)ncc34)CC2)CC1 [Example 27, (4-{6-Amino-7-[(R)-1-(2,6-dichloro-3-fluorophenyl)-ethoxy]-furo[3,2-c]pyridin-3-yl}-3,6-dihydro-2H-pyridin-1-yl)-(4-ethylpiperazin-1-yl)-methanone]
IC50 [1]: < 500 nM | IC50 [2]: < 500 nM

C[C@@H](Oc1c(N)ncc2c(C3=CCN(C(=O)N4CCN(CC(F)(F)F)CC4)CC3)coc12)c1c(Cl)ccc(F)c1Cl [Example 28, (4-{6-Amino-7-[(R)-1-(2,6-dichloro-3-fluorophenyl)-ethoxy]-furo[3,2-c]pyridin-3-yl}-3,6-dihydro-2H-pyridin-1-yl)-[4-(2,2,2-trifluoroethyl)-piperazin-1-yl]-methanone]
IC50 [1]: 500 to 5000 nM | IC50 [2]: 500 to 5000 nM
